# Source: PMC7045694 (ACS Nano, 2020)
# Biological target: T1, LBP (leucine-binding protein) (Escherichia coli, UniProt P04816)
# T1 sequence (P04816 24-369): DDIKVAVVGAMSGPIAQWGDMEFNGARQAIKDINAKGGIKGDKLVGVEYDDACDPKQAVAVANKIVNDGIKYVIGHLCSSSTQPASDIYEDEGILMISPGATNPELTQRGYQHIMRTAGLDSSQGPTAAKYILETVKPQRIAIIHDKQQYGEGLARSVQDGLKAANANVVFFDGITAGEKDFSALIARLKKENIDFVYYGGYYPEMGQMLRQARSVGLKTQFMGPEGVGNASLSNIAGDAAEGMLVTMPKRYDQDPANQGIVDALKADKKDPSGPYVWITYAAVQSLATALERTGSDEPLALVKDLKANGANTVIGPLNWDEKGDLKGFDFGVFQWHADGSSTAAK
structure (smiles),measurement,value
CC(C)C[C@H](N)C(=O)O [leucine],Kd,86 ± 19 nM
